Experimental data from ChEMBL document CHEMBL3988442, “University of Dundee, Small-Polar-MMV Screening Library” (2021).
Several values for one entry are separate records, joined by “and”; a condition that tells them apart may be missing. Equal entries are not always repeated.

What was measured:
[1] = Trypanosoma cruzi proteasome luciferase counter-screen; type: functional, N/A
Proteasome subunit beta = target: T1, Proteasome subunit beta (Trypanosoma cruzi, UniProt O96673); assay: Trypanosoma cruzi proteasome chymotrypsin-like activity (TcProtChymo) assay.; type: functional
T1 sequence (O96673 whole entry): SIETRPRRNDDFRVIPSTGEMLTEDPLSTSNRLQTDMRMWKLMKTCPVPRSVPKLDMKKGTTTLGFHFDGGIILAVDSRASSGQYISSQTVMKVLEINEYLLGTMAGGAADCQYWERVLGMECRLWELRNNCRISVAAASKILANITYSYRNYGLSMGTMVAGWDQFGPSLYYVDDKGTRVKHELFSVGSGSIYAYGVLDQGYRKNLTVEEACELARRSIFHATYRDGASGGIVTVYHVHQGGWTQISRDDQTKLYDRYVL

[2] = In vitro enzyme assay to detect hydrolysis of chlorophenol red-beta-D-[…] directly proportional to the number of Toxoplasma stably expressing beta-galactosidase; type: functional, organism-based, Toxoplasma gondii; details: Toxoplasma gondii
Leishmania donovani = assay: Leishmania intramacrophage assay; type: functional, organism-based; details: for IC50: Leishmania donovani
[3] = To identify inhibition of the IFN signalling (Jak-Stat) pathway via expression of an eGFP reporter gene under the control of an IFN-stimulated response element (ISRE) containing MxA promoter.; type: functional, Homo sapiens
[4] = target: Chromo domain-containing protein 1 (Saccharomyces cerevisiae (strain ATCC 204508 / S288c) (Baker's yeast), UniProt P32657); assay: ScCHD-1 Enzyme Inhibition Assay; type: functional
Chain of Chromo domain-containing protein 1 (P32657 whole entry, the tested form may be a part): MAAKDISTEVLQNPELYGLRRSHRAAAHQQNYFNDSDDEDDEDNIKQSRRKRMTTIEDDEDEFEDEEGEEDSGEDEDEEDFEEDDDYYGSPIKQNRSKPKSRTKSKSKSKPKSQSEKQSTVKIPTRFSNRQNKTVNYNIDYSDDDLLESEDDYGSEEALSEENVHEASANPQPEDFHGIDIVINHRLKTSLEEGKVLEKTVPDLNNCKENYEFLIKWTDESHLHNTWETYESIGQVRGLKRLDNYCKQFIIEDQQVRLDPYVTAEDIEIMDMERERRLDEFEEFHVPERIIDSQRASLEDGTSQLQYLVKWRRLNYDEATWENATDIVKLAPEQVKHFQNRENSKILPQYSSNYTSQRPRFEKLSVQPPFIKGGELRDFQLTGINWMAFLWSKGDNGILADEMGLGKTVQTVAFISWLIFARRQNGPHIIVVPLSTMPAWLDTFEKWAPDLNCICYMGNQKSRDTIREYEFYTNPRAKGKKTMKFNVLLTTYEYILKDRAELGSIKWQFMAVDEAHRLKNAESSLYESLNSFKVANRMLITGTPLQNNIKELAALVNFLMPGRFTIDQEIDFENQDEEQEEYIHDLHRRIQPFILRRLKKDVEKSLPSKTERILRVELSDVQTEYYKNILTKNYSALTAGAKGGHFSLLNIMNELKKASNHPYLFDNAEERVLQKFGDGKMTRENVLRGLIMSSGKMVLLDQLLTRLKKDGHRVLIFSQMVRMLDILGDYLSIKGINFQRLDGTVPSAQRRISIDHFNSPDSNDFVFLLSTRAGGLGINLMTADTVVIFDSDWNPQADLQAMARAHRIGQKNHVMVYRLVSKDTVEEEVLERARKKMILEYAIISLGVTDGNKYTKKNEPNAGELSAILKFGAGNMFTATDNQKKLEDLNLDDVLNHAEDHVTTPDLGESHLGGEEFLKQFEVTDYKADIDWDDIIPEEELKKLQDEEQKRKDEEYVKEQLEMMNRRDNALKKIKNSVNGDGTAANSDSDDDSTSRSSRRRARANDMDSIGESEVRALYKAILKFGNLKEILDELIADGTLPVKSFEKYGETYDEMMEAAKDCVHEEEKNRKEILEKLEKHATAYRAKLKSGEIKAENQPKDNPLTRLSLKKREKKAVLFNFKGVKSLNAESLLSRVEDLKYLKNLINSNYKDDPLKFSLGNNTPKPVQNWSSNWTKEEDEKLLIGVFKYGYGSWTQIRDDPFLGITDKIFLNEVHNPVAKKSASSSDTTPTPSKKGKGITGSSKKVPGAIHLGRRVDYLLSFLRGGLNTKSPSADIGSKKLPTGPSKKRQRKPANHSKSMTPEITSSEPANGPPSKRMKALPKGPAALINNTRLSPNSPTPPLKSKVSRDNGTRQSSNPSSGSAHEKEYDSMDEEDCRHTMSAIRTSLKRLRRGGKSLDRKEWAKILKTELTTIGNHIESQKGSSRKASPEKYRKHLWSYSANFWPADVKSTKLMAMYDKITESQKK

Schistosoma mansoni = assay: High throughput screening of compounds against Schistosoma mansoni motility; type: functional; design: dose or concentration left out as unconfirmed
Lysine--tRNA ligase = Lysine--tRNA ligase (Plasmodium falciparum (isolate 3D7), UniProt Q8IDJ8); assay: Pf-KRS-1 (Lysyl-RNA Synthetase-1, KRS-1, cytosolic KRS) from Plasmodium falciparum. Inhibitor assay, 384 well plate, luminescence read.; type: functional
Chain of Lysine--tRNA ligase (Q8IDJ8 whole entry): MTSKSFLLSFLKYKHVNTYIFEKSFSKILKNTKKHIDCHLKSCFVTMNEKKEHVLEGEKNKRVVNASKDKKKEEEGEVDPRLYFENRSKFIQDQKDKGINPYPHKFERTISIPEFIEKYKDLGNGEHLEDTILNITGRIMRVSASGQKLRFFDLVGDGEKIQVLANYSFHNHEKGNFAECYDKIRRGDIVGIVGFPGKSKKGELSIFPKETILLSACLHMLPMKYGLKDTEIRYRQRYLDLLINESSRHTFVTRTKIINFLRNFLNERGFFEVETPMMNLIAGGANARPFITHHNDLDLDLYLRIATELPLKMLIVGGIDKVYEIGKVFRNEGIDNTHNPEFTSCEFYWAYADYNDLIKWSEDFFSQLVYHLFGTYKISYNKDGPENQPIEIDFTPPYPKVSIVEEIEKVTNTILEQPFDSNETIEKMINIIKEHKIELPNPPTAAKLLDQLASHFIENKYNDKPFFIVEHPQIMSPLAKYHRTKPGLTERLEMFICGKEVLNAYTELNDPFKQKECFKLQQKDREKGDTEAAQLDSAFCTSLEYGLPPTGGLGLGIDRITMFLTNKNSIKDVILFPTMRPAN

Plasmodium falciparum = assay: Calibr Malaria Delayed Death Assay SOP; type: functional, organism-based
Trypanosoma brucei = assay: Trypanosoma brucei 72 hour study; type: functional, organism-based
ClpP1P2 = ClpP1P2 (Mycobacterium tuberculosis (strain ATCC 25618 / H37Rv), UniProt P9WPC3+P9WPC5); assay: in vitro assay to detect presence of AMC directly proportional to the activity of ClpP1P2. GHDDI collaboration.; type: functional
Chain of ClpP1P2 (P9WPC5 whole entry): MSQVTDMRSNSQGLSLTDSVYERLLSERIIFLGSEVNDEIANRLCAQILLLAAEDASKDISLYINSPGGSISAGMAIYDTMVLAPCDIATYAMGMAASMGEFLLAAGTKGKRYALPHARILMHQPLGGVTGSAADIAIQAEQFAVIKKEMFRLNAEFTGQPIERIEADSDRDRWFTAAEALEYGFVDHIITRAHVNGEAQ
Chain of ClpP1P2 (P9WPC3 whole entry): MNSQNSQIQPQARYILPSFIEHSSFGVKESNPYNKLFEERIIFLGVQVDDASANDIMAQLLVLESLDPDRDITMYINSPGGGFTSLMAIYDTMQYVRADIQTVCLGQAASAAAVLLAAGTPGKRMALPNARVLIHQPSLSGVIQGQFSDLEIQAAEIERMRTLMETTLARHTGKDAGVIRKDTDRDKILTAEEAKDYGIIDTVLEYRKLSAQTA

[5] = microbe, parasite or virus in culture; details: Mycobacterium tuberculosis, 72 h, read-out: pIC50 (converted)
[6] = microbe, parasite or virus in culture; details: Mycobacterium tuberculosis, 96 h, read-out: pIC50 (converted)
[7] = target: Polyketide synthase Pks13 (Mycobacterium tuberculosis (strain ATCC 25618 / H37Rv), UniProt I6X8D2); assay: Mycobacterium tuberculosis Polyketide synthase 13 Thioesterase (PKS13); type: functional
Chain of Polyketide synthase Pks13 (I6X8D2 whole entry): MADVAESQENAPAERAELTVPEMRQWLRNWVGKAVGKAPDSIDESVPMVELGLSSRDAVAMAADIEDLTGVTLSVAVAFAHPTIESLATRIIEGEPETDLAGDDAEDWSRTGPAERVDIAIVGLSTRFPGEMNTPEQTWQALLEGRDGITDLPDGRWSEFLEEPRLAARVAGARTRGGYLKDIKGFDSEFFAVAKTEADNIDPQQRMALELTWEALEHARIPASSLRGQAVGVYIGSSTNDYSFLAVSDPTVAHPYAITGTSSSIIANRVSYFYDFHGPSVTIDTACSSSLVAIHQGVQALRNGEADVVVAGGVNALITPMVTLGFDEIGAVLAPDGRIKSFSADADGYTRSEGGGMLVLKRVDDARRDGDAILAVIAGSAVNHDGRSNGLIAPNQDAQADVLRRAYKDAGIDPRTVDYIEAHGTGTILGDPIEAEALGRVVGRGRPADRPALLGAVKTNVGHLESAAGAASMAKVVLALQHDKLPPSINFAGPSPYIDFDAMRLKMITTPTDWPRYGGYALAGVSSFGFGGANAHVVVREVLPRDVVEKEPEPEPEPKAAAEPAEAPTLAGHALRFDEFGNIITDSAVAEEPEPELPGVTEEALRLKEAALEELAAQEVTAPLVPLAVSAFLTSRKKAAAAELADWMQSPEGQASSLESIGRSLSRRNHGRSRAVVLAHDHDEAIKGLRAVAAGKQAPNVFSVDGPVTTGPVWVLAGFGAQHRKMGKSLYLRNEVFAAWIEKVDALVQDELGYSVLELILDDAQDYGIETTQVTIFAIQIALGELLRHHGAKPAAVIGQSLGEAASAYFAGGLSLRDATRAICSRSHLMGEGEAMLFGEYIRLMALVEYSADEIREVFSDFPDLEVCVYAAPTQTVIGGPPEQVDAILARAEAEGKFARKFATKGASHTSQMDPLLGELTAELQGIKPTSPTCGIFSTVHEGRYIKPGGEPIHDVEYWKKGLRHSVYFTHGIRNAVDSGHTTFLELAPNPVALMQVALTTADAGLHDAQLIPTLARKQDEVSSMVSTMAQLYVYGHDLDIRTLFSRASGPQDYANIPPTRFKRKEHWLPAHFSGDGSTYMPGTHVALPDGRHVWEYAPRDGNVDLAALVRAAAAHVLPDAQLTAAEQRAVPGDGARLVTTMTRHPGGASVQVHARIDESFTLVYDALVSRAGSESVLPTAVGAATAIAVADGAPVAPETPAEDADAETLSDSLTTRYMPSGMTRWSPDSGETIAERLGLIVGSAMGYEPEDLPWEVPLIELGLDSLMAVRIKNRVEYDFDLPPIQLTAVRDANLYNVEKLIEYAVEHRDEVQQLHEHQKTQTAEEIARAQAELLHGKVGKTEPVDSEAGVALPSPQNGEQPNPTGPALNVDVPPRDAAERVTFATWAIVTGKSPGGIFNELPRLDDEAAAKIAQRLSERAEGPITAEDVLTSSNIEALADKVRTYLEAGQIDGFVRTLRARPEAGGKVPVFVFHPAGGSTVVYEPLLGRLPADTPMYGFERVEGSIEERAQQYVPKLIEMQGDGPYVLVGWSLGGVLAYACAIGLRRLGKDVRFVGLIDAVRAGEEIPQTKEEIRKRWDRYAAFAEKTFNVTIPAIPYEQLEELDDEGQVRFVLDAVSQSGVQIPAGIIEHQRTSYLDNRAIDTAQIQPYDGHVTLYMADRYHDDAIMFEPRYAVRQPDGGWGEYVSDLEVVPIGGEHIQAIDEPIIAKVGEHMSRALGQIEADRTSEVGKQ

Row | SMILES | pIC50 [1] | IC50 (Proteasome subunit beta) | pIC50 [3] | other results
1 | CCCC(NC(=O)c1cc(C)n(C2CC2)c1C)c1nnn[nH]1 (centres undefined) | < 4 | 55.7 µM and 67.9 µM |  | 
2 | CCOc1cc(/C=C/c2ncc(C(=O)O)s2)ccc1O | 4.099 and 4.094 | 15.5 µM and 21.9 µM |  | 
3 | COc1ccccc1CNC(=O)C1=NN(c2ccc(C)cc2)C(=O)CN1 |  |  | 4.606 and 4.808 | IC50 [2]: 10.8 µM; pIC50 (Leishmania donovani): < 4.3 and 4.742
4 | CCOCCCn1c(NC(=O)c2scnc2C)nc2ccccc21 |  |  | 4.523 and 4.463 | IC50 [4]: > 29.5 µM
5 | CN1C(=O)C(C)(C)COc2cc(NS(=O)(=O)Cc3ccccc3)ccc21 |  |  | < 4.21 and 4.593 | Percent Effect (Schistosoma mansoni): 31.95%
6 | Cc1nc(CN2CCOC(CNc3cccnn3)C2)oc1C (centres undefined) | < 4 | > 100 µM |  | 
7 | NC(=O)c1nc(COc2ccc3c(c2)OCO3)no1 | < 4 | 8.85 µM and 10.5 µM |  | 
8 | CCOc1ccc(S(=O)(=O)NCc2cccnc2N(C)C)cc1 |  |  | 5.549 and 5.242 | IC50 (Lysine--tRNA ligase): > 50.1 µM; IC50 (Leishmania donovani): > 50.1 µM
9 | CN(C)c1cc(CNC(=O)Nc2ccc(F)cc2)ccn1 | 4.234 and 4.227 | 14.4 µM and 16.9 µM |  | 
10 | CC(C)c1n[nH]c(C(=O)Nc2ccncc2)c1Br |  |  | 4.519 and 4.533 | IC50 (Leishmania donovani): > 50.1 µM
11 | CC(C)=CCN1C[C@H]2CC[C@@H]1CN(C(=O)c1c[nH]c(=O)c(Cl)c1)C2 | < 4 | > 100 µM |  | 
12 | Cc1nc[nH]c1CN(C)CC1CCCN(CCc2ccc(Cl)cc2)C1 (centres undefined) |  |  | 4.612 and 4.41 | pIC50 (Plasmodium falciparum): 6.162; IC50 (Plasmodium falciparum; Plasmodium falciparum): 565 nM; pIC50 (Trypanosoma brucei): 5.168 and 5.164; IC50 (Trypanosoma brucei; Trypanosoma brucei, 72 h): 6.79 µM; Percent Effect (Schistosoma mansoni): 102.7%; pIC50 (Leishmania donovani): 5.148; IC50 (Leishmania donovani): 8.56 µM
13 | Cc1cnn(CC2CCCN2CC(=O)N(C)Cc2ccc(C)o2)c1 (centres undefined) | < 4 | > 100 µM |  | 
14 | O=C(CC1CN(Cc2ccccc2)CCO1)Nc1ccccc1F (centres undefined) | 4.434 and 4.445 | 12.6 µM and 13.6 µM |  | 
15 | Cc1cnn(CC2CN(c3ncnc4ccsc34)CCO2)c1 (centres undefined) |  |  | 5.764 [middle of 4 runs] | IC50 (Leishmania donovani): > 50.1 µM
16 | c1ccc2sc(N3CCOC(Cn4cccn4)C3)nc2c1 (centres undefined) | 4.135 and 4.203 | 18 µM and 17.7 µM |  | 
17 | CN(C(=O)Cc1ccc(NC(=O)NC2CCC2)cc1)c1ccccc1 | < 4 | > 100 µM |  | 
18 | Cn1cccc1C(=O)N1CCC2(CC1)CN(c1cncnc1)C(=O)CO2 | < 4 | > 100 µM |  | 
19 | CO[C@@H]1CN(Cc2scnc2C)[C@@H]2CCCO[C@@H]21.O=C(O)C(F)(F)F.O=C(O)C(F)(F)F | < 4 | 8.6 µM and 10.8 µM |  | IC50 (ClpP1P2): > 100 µM
20 | CNS(=O)(=O)Cc1ccc(CNc2cncc(-n3cccn3)n2)cc1 | 4.398 and 4.427 | 10.5 µM and 10.6 µM |  | IC50 (ClpP1P2): > 100 µM
21 | Cc1cnn(CC2CN(c3cnc4ccccc4n3)CCO2)c1 (centres undefined) | 4.14 and 4.151 | 17.8 µM and 19.4 µM |  | IC50 [5]: 16.4 µM; IC50 [6]: 14.4 µM
22 | Cc1cc(C(C)C(=O)N2CCCN(Cc3cscn3)CC2)c(C)o1 (centres undefined) | < 4 | > 100 µM |  | 
23 | COc1cccc(-c2noc(C3CCN(Cc4cccs4)C3)n2)c1.Cl (centres undefined) | 4.852 and 4.875 | 13.9 µM and 12.6 µM |  | 
24 | COc1cc(CN(C)C(=O)Cc2c(C)nn(C)c2C)ccc1OC(F)F |  |  | 5.786 [middle of 4 runs] | Percent Effect (Schistosoma mansoni): -34.16%
25 | Cc1ccc(NCc2cncc3c2CCN(C(=O)C2CC=CC2)C3)nn1.Cl | < 4 | > 100 µM |  | 
26 | Cc1ccc(N2CC[C@H]3O[C@@H](C(=O)NCc4ccco4)CC[C@H]32)nn1.O=C(O)C(F)(F)F | < 4 | > 100 µM |  | 
27 | Cc1nc(CN2CCCC(N(C)Cc3cscn3)C2)no1 (centres undefined) | < 4 | 34.8 µM and 26.4 µM |  | 
28 | COCCN1CCc2cc(C(=O)NCC3CC3)c(NC(C)C)nc2CC1.O=C(O)C(F)(F)F.O=C(O)C(F)(F)F |  |  | 5.014 and 5.099 | IC50 [7]: 18.4 µM and 14.5 µM; IC50 (ClpP1P2): > 100 µM
